In PubChem BioAssay (NCI):
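A five-concentration, 48-hour dose response in 96-well plates underlies each endpoint, interpolated linearly between surrounding concentrations. GI50 marks 50% less growth. TGI denotes the concentration required for complete inhibition of growth.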

Key:
Experiment in all cases: NCI-60 cell line screen, 48 h
[1] = system: ACHN renal
[2] = system: HT29 colon
[3] = system: KM12 colon
[4] = system: MOLT-4 leukemia
[5] = system: OVCAR-3 ovarian
[6] = system: PC-3 prostate
[7] = system: SF-268 CNS
[8] = system: SK-MEL-2 melanoma
[9] = system: SNB-19 CNS
[10] = system: SR leukemia

Row | Structure (SMILES) | TGI [1] [µM] | TGI [2] [µM] | TGI [3] [µM] | TGI [4] [µM] | TGI [5] [µM] | TGI [6] [µM] | TGI [7] [µM] | TGI [8] [µM] | TGI [9] [µM] | TGI [10] [µM] | GI50 [1] [µM] | GI50 [2] [µM] | GI50 [3] [µM] | GI50 [4] [µM] | GI50 [5] [µM] | GI50 [6] [µM] | GI50 [7] [µM] | GI50 [8] [µM] | GI50 [9] [µM] | GI50 [10] [µM]
1 | COc1ccc2c(c1)Cc1cc(N=[N+]([O-])c3ccc4c(c3)Cc3cc(OC)ccc3-4)ccc1-2 | > 100 | 32.9 | > 100 | > 100 | > 100 | > 100 | > 100 | > 100 | > 100 | 41.5 | – | – | – | – | – | – | – | – | – | –
2 | Nc1nc(Cl)cc2c1ncn2C1OC(CO)C(O)C1O (stereo unspecified) | > 100 | > 100 | > 100 | > 100 | > 100 | > 100 | > 100 | > 100 | > 100 | > 100 | > 100 | > 100 | > 100 | > 100 | > 100 | > 100 | > 100 | > 100 | > 100 | > 100
3 | COC(=O)C1=C(O)C(C(=O)OC)[C@@]2(O)[C@@H](C(=O)OC)C(c3ccc(OC(=O)C(Cc4ccccc4)NC(C)=O)cc3)C[C@@H]1[C@@H]2C(=O)OC (stereo partly specified) | – | 33.6 | 41.3 | 46.4 | – | 91 | 88.3 | > 100 | > 100 | > 100 | – | 15.6 | 15.3 | 14.8 | – | 27.6 | 21.9 | 47.4 | 36.4 | 3.35
4 | CN1CCN(c2nc(NCCNc3ccnc4cc(Cl)ccc34)c3ccccc3n2)CC1 | 8.27 | 4.18 | 12.1 | 6.36 | 7.44 | 14.3 | 13.1 | 4.19 | 15.2 | 3.67 | 2.85 | 0.699 | 2.43 | 1.63 | 2.21 | 2.07 | 2.72 | 1.98 | 3.34 | 1.3
5 | COc1ccc(/C(C#N)=C/c2nc3c(N4CCOCC4)nc(Cl)nc3n2C)cc1OC | 1.25 | 1.4 | 1.26 | 2.89 | < 0.01 | 1.52 | 2.23 | 1.27 | 2.91 | 3.68 | < 0.01 | < 0.01 | < 0.01 | 0.0251 | < 0.01 | < 0.01 | 0.0173 | < 0.0228 | < 0.01 | < 0.01
6 | COc1ccc(NC(=O)CC(=O)n2nc(-c3ccccc3)c(N=Nc3ccc(C)cc3)c2-c2ccccc2)cc1 | 60.9 | > 100 | > 100 | > 100 | 77.2 | > 57.9 | 53.4 | 65.2 | 49.4 | 98.3 | – | – | – | – | – | – | – | – | – | –
7 | COc1cc(Oc2cnc3cc(N)cc(N)c3n2)cc(OC)c1OC | 63.4 | 40.4 | > 100 | 51.9 | > 100 | > 100 | > 100 | > 100 | > 100 | 37.2 | 24.3 | 18.5 | 24.9 | 20.2 | 26.8 | 32.4 | 67.3 | > 100 | > 100 | 14
